This is an account of results in patent publication US20050288347A1, “Certain triazole-based compounds, compositions, and uses thereof” (priority 2004, published 2005).

SMILES strings stand for the structures. “Also recorded” adds a separate entry of the source.

The test system of one test is protein kinase. Briefly: HTS ATP-utilizing enzyme assay, off-chip mobility-shift format (Caliper HTS 250). Type of test: biochemical, human.
Conditions: not given
In short, it runs like this: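 Kinase reactions ran 2.5 h at 20 to 22 °C with test compound at 10 μM, in a HEPES pH 7.5 master buffer containing Triton X-100 and BSA. Peptide substrate and phosphorylated product separated by mobility shift; inhibition normalized to DMSO (0%) and EDTA (100%) controls, with three-sigma thresholds for hits.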
On to `COc1ccccc1-n1c(SCCCCc2ccccc2)nnc1-c1cc(C)n[nH]1`, for which the “protein kinase against which the compound exhibits inhibitory activity (Table 3)” value is recorded as “MAPKAPK-3”.

The test is the same for the next values; noted with them: kinase(s) for which the compound exhibits protein kinase inhibitory activity; test compound 10 μM; active = greater than three-sigma from the mean activity of inactive compounds.
With `CCOc1ccc(NCc2nnc(SCC(=O)Nc3cc(C(F)(F)F)ccc3Cl)n2-c2ccc(OC)cc2)cc1`, the Kinase entry is “PAK2 and AURORA-A and FYN”.

Take `O=C(CSc1nnc(-c2ccccc2O)n1CCc1ccccc1)Nc1nnc(C(F)(F)F)s1`: the Kinase result is listed as “AURORA-A”. For `O=C(CSc1nnc(-c2ccco2)n1-c1ccccc1)NCCc1ccccc1` [2-(5-(furan-2-yl)-4-phenyl-4H-1,2,4-triazol-3-ylthio)-N-phenethylacetamide], the Kinase result is reported as “AKT1”.

Regarding `CCn1c(SCC(=O)c2ccc(C)cc2)nnc1-c1ccc(S(=O)(=O)N2CCCCCC2)cc1`, the Kinase result is “AURORA-A”.

For the compound `CCn1c(SC(C)C(=O)Nc2ccccc2C)nnc1-c1ccc([N+](=O)[O-])cc1` (centres unmarked) [2-(4-ethyl-5-(4-nitrophenyl)-4H-1,2,4-triazol-3-ylthio)-N-o-tolylpropanamide], the Kinase result is reported as “DAPK1”. `Cn1c(SCC(=O)Nc2cccc(O)c2)nnc1-c1ccco1`: the Kinase result is reported as “CSK”.

In the case of `COc1ccc(OCc2nnc(SCC(=O)c3ccccc3)n2C)cc1`, the Kinase entry was “PAK2”.

Turning to `CCOc1ccc(NCc2nnc(SC(C)C(=O)N(c3ccccc3)c3ccccc3)n2-c2ccc(OC)cc2)cc1` (centres unmarked), the Kinase result is given as “FYN”. Same read-out and setting: the entry for `Cn1c(SCC#N)nnc1-c1ccc(O)cc1` [2-(5-(4-hydroxyphenyl)-4-methyl-4H-1,2,4-triazol-3-ylthio)acetonitrile] is “GSK3-β; also recorded: GSK3-α; also recorded: DAPK1”. Same read-out and setting: the entry for `CCOC(=O)CN(C(=O)CSc1nnc(-c2ccccc2)n1-c1ccccc1OC)c1cccc([N+](=O)[O-])c1` is “GSK3-α”.

Regarding `CCOc1ccc(NCc2nnc(SCC(=O)Nc3cccc(C(C)=O)c3)n2-c2ccccc2)cc1`, the Kinase result was “FYN and PDGFRR-α and FLT-3”.

Take `COc1ccc(NCc2nnc(SCC(=O)Nc3cccc(Cl)c3)n2C)cc1`: the Kinase entry was “PDGFRR-α and AURORA-A and FYN”. The same measure, in the same setting: the entry for `Cc1ccc(NCc2nnc(SCC(N)=O)n2CC2CCCO2)cc1Cl` (centres unmarked) is “AURORA-A”; for `C=CCNC(=O)CSc1nnc(-c2ccccc2O)n1-c1ccc(C)cc1` [N-allyl-2-(5-(2-hydroxyphenyl)-4-p-tolyl-4H-1,2,4-triazol-3-ylthio)acetamide] it is “AURORA-A”. Still for that read-out and setting: for `COc1ccc(NCc2nnc(SCC(=O)Nc3cccc(C(F)(F)F)c3)n2C)cc1` the value was “PDGFRR-α and FYN and FLT-3”.

With `COc1ccc(NCc2nnc(SCC(=O)Nc3ccc(Br)cc3)n2C)cc1`, the Kinase result is “PDGFRR-α and FYN and AURORA-A”. The same measure, in the same setting: for `Cc1cccc(OCc2nnc(SCC(=O)N3CCCc4ccccc43)n2Cc2ccco2)c1C` the value was “AKT1”. As to `Cn1c(CNc2ccc(F)cc2)nnc1SCC(=O)Nc1ccc([N+](=O)[O-])cc1`, the Kinase entry is “CHEK2”. Still for that read-out and setting: for `Cc1ccc(-n2c(CNc3ccc(F)cc3)nnc2SCC(=O)O)cc1` the value was “DAPK1; also recorded: AURORA-A”. For `C=CCn1c(SCC(=O)Nc2sc3c(c2C(=O)OCC)CCC3)nnc1-c1ccncc1`, the Kinase entry was “CDK1 and AURORA-A”. Same read-out and setting: for `CCn1c(SCC(=O)N2CCc3ccccc3C2)nnc1-c1cc2ccccc2cc1O` the value was “DAPK1; also recorded: AURORA-A”; for `COc1ccccc1-n1c(SCC(=O)OCc2ccccc2)nnc1-c1ccco1`, “GSK3-α; also recorded: AURORA-A”; for `CCOC(=O)CSc1nnc(-c2cc3ccccc3cc2O)n1C`, “FYN”. Still for that read-out and setting: for `CC1CCCCC1NC(=O)CSc1nnc(-c2ccccc2)n1Cc1ccccc1` (centres unmarked) the value was “AKT1”; for `O=C(CSc1nnc(Cc2ccccc2)n1Cc1ccccc1)Nc1ccccc1-c1ccccc1` [N-(biphenyl-2-yl)-2-(4,5-dibenzyl-4H-1,2,4-triazol-3-ylthio)acetamide], “CDK2-cyclinE”; for `O=C(CSc1nnc(-c2cccnc2)n1Cc1ccccc1)CC(=O)Nc1ccccc1`, “AURORA-A”. Consider `CCOc1ccc(NCc2nnc(SCC(=O)Nc3cc(C)on3)n2-c2ccccc2OC)cc1`, for which the Kinase result was “PDGFRR-α and FYN”. `COC(=O)c1ccccc1NC(=O)CSc1nnc(-c2ccc(O)cc2)n1C`: the Kinase result is “GSK3-β; also recorded: GSK3-α”. On the same count and under the same terms, the entry for `Cc1csc(NC(=O)CSc2nnc(-c3cccnc3)n2C)n1` is “PAK2”; for `O=C(CSc1nnc(-c2ccncc2)n1Cc1ccco1)Nc1cccc(I)c1` it is “GSK3-β and AKT3 and SRC”. For `CCn1c(S)nnc1CSc1nc(C)cc(C)n1` [5-((4,6-dimethylpyrimidin-2-ylthio)methyl)-4-ethyl-4H-1,2,4-triazole-3-thiol], the Kinase result is listed as “GSK3-α”.

For the compound `CCOC(=O)CSc1nnc(CNc2ccc(C)c(Cl)c2)n1CC1CCCO1` (centres unmarked), the Kinase result is “CHEK2”. As to `CCc1ccccc1NC(=O)CSc1nnc(COc2ccc(C)cc2)n1C`, the Kinase result was “PDGFRR-α”.

Still in this test, the particulars now being: test compound 10 μM; active = activity greater than three-sigma from the mean of the predominately inactive population for that enzyme.
For the compound `COc1ccc(NCc2nnc(SCC(=O)NNC(=O)c3ccc(C)cc3)n2C)cc1`, the “protein kinase against which the compound exhibits inhibitory activity (Table 3)” value is “PDGFRR-α and FYN and FLT-3”. Same read-out and setting: the entry for `Cc1ccc(CSc2nnc(-c3ccccc3C)n2C)cc1` [4-methyl-3-(4-methylbenzylthio)-5-o-tolyl-4H-1,2,4-triazole] is “AKT1”; for `c1cncc(-c2nnc(SCC3CCCO3)[nH]2)c1` (centres unmarked) [3-(5-((tetrahydrofuran-2-yl)methylthio)-4H-1,2,4-triazol-3-yl)pyridine] it is “AURORA-A”. Regarding `CNC(=O)CSc1nnc(-c2ccccc2O)n1-c1ccccc1OC`, the “protein kinase against which the compound exhibits inhibitory activity (Table 3)” value is reported as “AURORA-A”.

As to `COc1ccccc1-n1c(SCC(=O)c2ccc3c(c2)OCCO3)nnc1-c1cccc(Cl)c1`, the “protein kinase against which the compound exhibits inhibitory activity (Table 3)” value was “ROCK2”.

Turning to `CCCCSc1nnc(-c2cccc(C(F)(F)F)c2)[nH]1` [3-(butylthio)-5-(3-(trifluoromethyl)phenyl)-4H-1,2,4-triazole], the “protein kinase against which the compound exhibits inhibitory activity (Table 3)” value is “AURORA-A; also recorded: FLT-3; also recorded: GSK3-α”. Consider `CN(C)CCCSc1nnc(-c2cccc(C(F)(F)F)c2)[nH]1`, for which the “protein kinase against which the compound exhibits inhibitory activity (Table 3)” value is listed as “CHEK2; also recorded: c-TAK1; also recorded: GSK3-β”. With `Cc1ccc(-n2c(SCc3ccc(C(=O)O)cc3)nnc2-c2ccc(Cl)cc2)cc1`, the “protein kinase against which the compound exhibits inhibitory activity (Table 3)” value is “SYK”. In the case of `CCn1c(SCCN2CCCCC2)nnc1-c1ccc([N+](=O)[O-])cc1` [1-(2-(4-ethyl-5-(4-nitrophenyl)-4H-1,2,4-triazol-3-ylthio)ethyl)piperidine], the “protein kinase against which the compound exhibits inhibitory activity (Table 3)” value was “PDGFRR-α”. As for `COc1ccc(-n2c(Cc3ccccc3)nnc2SC)cc1` [3-benzyl-4-(4-methoxyphenyl)-5-(methylthio)-4H-1,2,4-triazole], the “protein kinase against which the compound exhibits inhibitory activity (Table 3)” value is recorded as “AKT1”.

For the compound `CCc1ccc(OCc2nnc(SCCC(=O)O)n2CC)cc1`, the “protein kinase against which the compound exhibits inhibitory activity (Table 3)” value is listed as “MSK1”. On the same count and under the same terms, the entry for `OCCSc1nnc(-c2ccccc2)[nH]1` [2-(5-phenyl-4H-1,2,4-triazol-3-ylthio)ethanol] is “FLT-3; also recorded: AURORA-A; also recorded: DYRK2”; for `CN1C=NN(c2cc3ccccc3cc2O)C1SCc1nnc(-c2ccccc2)o1` (centres unmarked) it is “GSK3-β; also recorded: GSK3-α”.
